Activity calls are given as the source filed them. No cut-off for these calls is given here.
Key:
[1] = target: Muscarinic acetylcholine receptor (Rattus norvegicus) (UniProt P08482+P08483+P08485+P08911+P10980); assay: Percentage inhibition of field stimulated contraction guinea pig ileum (parasympatholytic activity)in presence of test compound (4 mg/L); type: functional, tissue-based; details: Cavia porcellus, target entry is the homologue from another species
Canis familiaris [2] = organism: Canis familiaris; assay: Active dose for antiarrhythmic activity in Harris dog.; type: functional, Canis lupus familiaris, Heart
Canis familiaris [3] = assay: Active dose for antiarrhythmic activity in Harris dog; inactive to 30 mg/kg; type: functional, organism-based; set-up: dose 30 mg/kg; details: Canis lupus familiaris; Heart
Canis familiaris [4] = assay: Active dose for antiarrhythmic activity in Harris dog.(partial restoration of normal sinus rhythm up to 12 mg/kg when loss of muscle tone occurred); low activity; type: functional, organism-based; set-up: dose 12 mg/kg; details: Canis lupus familiaris
Canis familiaris [5] = assay: Active dose for antiarrhythmic activity in Harris dog. (incomplete restoration of normal sinus rhythm up to 2 mg/kg when death occurred); low activity; type: functional, organism-based; set-up: dose 2 mg/kg; details: Canis lupus familiaris; Heart
Canis familiaris [6] = assay: Active dose for antiarrhythmic activity in Harris dog.(partial restoration of normal sinus rhythm up to 9 mg/kg when death occurred); low activity; type: functional, organism-based; set-up: dose 9 mg/kg; details: Canis lupus familiaris; Heart
Canis familiaris [7] = assay: Active dose for antiarrhythmic activity in Harris dog; inactive to 22 mg/kg; type: functional, organism-based; set-up: dose 22 mg/kg; details: Canis lupus familiaris; Heart
Canis familiaris [8] = assay: Active dose for antiarrhythmic activity in Harris dog. (incomplete or no effect to restore sinus rhythm up to 30 mg/kg); low activity; type: functional, organism-based; set-up: dose 30 mg/kg; details: Canis lupus familiaris; Heart

Row | SMILES | inhibition [1] [%] | Dose (Canis familiaris [2]) [mg/kg] | further results
1 | Nc1cc(CN2CCCC2)c(O)c(CN2CCCC2)c1 | 3 |  | DOSE (Canis familiaris [3]): inactive
2 | Oc1c(CN2CCCC2)cc(Nc2ncccn2)cc1CN1CCCC1 | 6 |  | DOSE (Canis familiaris [4]): Partially active
3 | COc1nnc(Nc2cc(CN3CCCC3)c(O)c(CN3CCCC3)c2)c2ccccc12 | 84 |  | DOSE (Canis familiaris [5]): Partially active
4 | Oc1c(CN2CCCC2)cc(Nc2ccncc2)cc1CN1CCCC1 | 5 | 8.5 | 
5 | Oc1c(CN2CCCC2)cc(CNc2nnc(Cl)c3ccccc23)cc1CN1CCCC1 | 78 | 4.5 | 
6 | Oc1c(CN2CCCC2)cc(Nc2ccnc3cc(Cl)ccc23)cc1CN1CCCC1 | 27 |  | DOSE (Canis familiaris [4]): Partially active
7 | CC(=O)Nc1cc(CN2CCCC2)c(O)c(CN2CCCC2)c1 |  |  | DOSE (Canis familiaris [3]): inactive
8 | Oc1c(CN2CCCC2)cc(Nc2nccc3ccccc23)cc1CN1CCCC1 | 48 | 1.1 | 
9 | COc1cc2c(Nc3cc(CN4CCCC4)c(O)c(CN4CCCC4)c3)ncnc2c(OC)c1OC | 14 |  | DOSE (Canis familiaris [8]): Partially active
10 | Cc1cc(Nc2cc(CN3CCCC3)c(O)c(CN3CCCC3)c2)c2ccccc2n1 |  | 11 | 
11 | Clc1nnc(Nc2cc(CN3CCCC3)cc(CN3CCCC3)c2)c2ccccc12 | 93 | 3 | 
12 | Oc1c(CN2CCCC2)cc(Nc2nnc(Cl)c3ccccc23)cc1CN1CCCC1 | 76 | 2.5 | 
13 | Oc1c(CN2CCCC2)cc(Nc2ccc(Cl)nn2)cc1CN1CCCC1 | 40 | 10.5 | 
14 | Oc1c(CN2CCCC2)cc(Nc2ccnc3cc(C(F)(F)F)ccc23)cc1CN1CCCC1 | 36 | 3 | 
15 | Oc1c(CN2CCCC2)cc(Nc2nncc3ccccc23)cc1CN1CCCC1 | 83 | 1.5 | 
16 | Oc1c(CN2CCCC2)cc(Nc2ccc3ccccc3n2)cc1CN1CCCC1 | 50 | 6 | 

Continued, in another order:

Row | inhibition [1] [%] | SMILES | Dose (Canis familiaris [2]) [mg/kg] | further results
17 | 43 | Oc1c(CN2CCCC2)cc(Nc2ncnc3ccccc23)cc1CN1CCCC1 [CHANGROLIN] | 10.3 | 
18 | 72 | Oc1ccc(Nc2ccc3ccccc3n2)cc1CN1CCCC1 | 11 | 
19 | 19 | Oc1c(CN2CCCC2)cc(Nc2ccnc3ccccc23)cc1CN1CCCC1 |  | DOSE (Canis familiaris [6]): Partially active
20 | 21 | Oc1c(CN2CCCC2)ccc(Nc2ncnc3ccccc23)c1CN1CCCC1 |  | DOSE (Canis familiaris [7]): inactive
21 | 14 | CN(C)Cc1cc(Nc2nncc3ccccc23)cc(CN(C)C)c1O | 14 | 
22 | 13 | Oc1ccc(Nc2ncnc3ccccc23)cc1 |  | DOSE (Canis familiaris [3]): inactive
23 | 65 | Oc1ccc(Nc2nnc(Cl)c3ccccc23)cc1CN1CCCC1 | 17 | 
24 | 48 | Oc1ccccc1Nc1ncnc2ccccc12 |  | DOSE (Canis familiaris [3]): inactive
25 | 23 | Oc1ccc(Nc2nncc3ccccc23)cc1 |  | DOSE (Canis familiaris [3]): inactive
